# Reference: patent publication US20030054185A1, “Biocidal controlled-release formulations” (CREAVIS GESELLSCHAFT F. TECHN.U.INNOVATION MBH, priority 2001, published 2003)
# Columns and labels:
# [1] = test system: Pseudomonas aeruginosa; assay: test microbial suspension shaken with aqueous extract, number of microbes determined; format: cell-based; details: contact time of 4 hours, starting number 10^7, 2 mL of 24 h water extract (37° C.) in 20 mL suspension (solvent control: 0.5 mL neat)
# Protocol: The supernatant liquor is then filtered through a 0.2 micrometer pore filter. 2 mL of this solution are shaken with 20 mL of a test microbial suspension of Pseudomonas aeruginosa. […] The solvent is removed at 35° C. over a period of 48 hours in a drying cabinet, so that a polymer film remains on the base of the glass beaker. This film is extracted for 24 hours with 200 mL of water heated to 37° C. 2 mL of this solution are shaken with 20 mL of a test microbial suspension of Pseudomonas aeruginosa. […] Over a period of 14 days, the film is extracted as described above, each time for 24 hours, with 200 mL of water heated to 37° C., and the water is then subjected to microbiological testing. All of the determinations show a fall of from 4 to 5 logarithmic levels in the number of microbes. […] The solvent is removed over a period of 48 hours at 35° C. in a drying cabinet, so that a polymer film remains on the base of the glass beaker. The film is then dried for 24 hours at 5 mbar at 50° C. in a vacuum drying cabinet. This film is extracted for 24 hours with 200 mL of water heated to 37° C. 2 mL of this solution are shaken with 20 mL of a test microbial suspension of Pseudomonas aeruginosa. […] The solvent is removed over a period of 48 hours at 35° C. in a drying cabinet so that a polymer film remains on the base of the glass beaker. […]
# [2] = test system: Staphylococcus aureus; assay: as above; format: cell-based; details: contact time of 4 hours, starting number 10^7, 2 mL of 24 h water extract (37° C.) in 20 mL suspension (solvent control: 0.5 mL neat)
# Protocol: 2 mL of this solution are shaken with 20 mL of a test microbial suspension of Staphylococcus aureus. After a contact time of 4 hours, 1 mL of the test microbial suspension is removed, and the number of microbes in the test mixture is determined.
# This film is extracted for 24 hours with 200 mL of water heated to 37° C. 2 mL of this solution are shaken with 20 mL of a test microbial suspension of Staphylococcus aureus. After a contact time of 4 hours, 1 mL of the test microbial suspension is removed, and the number of microbes in the test mixture is determined. […] Over a period of 14 days, the film is extracted as described above, each time for 24 hours, with 200 mL of water heated to 37° C., and the water is then subjected to microbiological testing.
# This film is extracted for 24 hours with 200 mL of water heated to 37° C. 2 mL of this solution are shaken with 20 mL of a test microbial suspension of Staphylococcus aureus. After a contact time of 4 hours, 1 mL of the test microbial suspension is removed, and the number of microbes in the test mixture is determined.
compound,measurement,setting,value
C1CCCCC1 [cyclohexane],number of microbes in the test mixture,[1],10^7 microbes per mL
CCO [ethanol],number of microbes in the test mixture,[2],10^7 microbes per mL
